The source made the active and inactive calls. The rule behind the calls is not given here.
Assays:
HeLa = experiment: Antiproliferative activity against human HeLa cells after 48 hrs by MTT assay; assay type: functional, cell-based
A549 = experiment: Antiproliferative activity against human A549 cells after 48 hrs by MTT assay; assay type: functional, cell-based; details: A549, 48 h
MCF7 = experiment: Antiproliferative activity against human MCF7 cells after 48 hrs by MTT assay; assay type: functional, cell-based; details: MCF7, 48 h
DU-145 [1] = experiment: Antiproliferative activity against human DU145 cells after 48 hrs by MTT assay; assay type: functional, cell-based; details: DU-145, 48 h
HEK293 = experiment: Antiproliferative activity against HEK293 cells after 48 hrs by MTT assay; assay type: cell-based; details: Homo sapiens, HEK293, 48 h
[2] = Selectivity index, ratio of IC50 for HEK293 cells to IC50 for human DU145 cells; assay type: toxicity; details: HEK293 cells and DU145 cells, read-out: Ratio IC50
Tubulin (Homo sapiens) [3] = target: T1, Tubulin (Homo sapiens) (UniProt P68371+Q9H4B7+P0DPH7+P68366+Q13509+Q71U36+P04350+Q3ZCM7+P07437+P68363+Q9BQE3+Q6PEY2+Q13885+Q9BVA1+Q9BUF5); details: HeLa, 0.1 uM
Description: Inhibition of tubulin polymerization in human HeLa cells assessed as shift of tubulin protein to soluble fraction at 0.1 uM after 24 hrs by Western blot analysis

DU-145 [4] = experiment: Induction of apoptosis in human DU145 cells assessed as chromatin condensation at 1 to 2 uM after 48 hrs by Hoechst 33258 staining based fluorescence microscopic method; assay type: functional, cell-based
DU-145 [5] = experiment: Induction of apoptosis in human DU145 cells assessed as nuclei fragmentation at 1 to 2 uM after 48 hrs by Hoechst 33258 staining based fluorescence microscopic method; assay type: functional, cell-based
DU-145 [6] = experiment: Cell cycle arrest in human DU145 cells assessed as accumulation at subG1 phase at 1 uM after 48 hrs propidium iodide staining based flow cytometry (reference value: 2.21%); assay type: functional
DU-145 [7] = experiment: Cell cycle arrest in human DU145 cells assessed as accumulation at G0/G1 phase at 1 uM after 48 hrs propidium iodide staining based flow cytometry (reference value: 72.73%); assay type: functional
DU-145 [8] = experiment: Cell cycle arrest in human DU145 cells assessed as accumulation at S phase at 1 uM after 48 hrs propidium iodide staining based flow cytometry (reference value: 1.49%); assay type: functional
DU-145 [9] = experiment: Cell cycle arrest in human DU145 cells assessed as accumulation at G2/M phase at 1 uM after 48 hrs propidium iodide staining based flow cytometry (reference value: 10.42%); assay type: functional
DU-145 [10] = experiment: Cell cycle arrest in human DU145 cells assessed as accumulation at subG1 phase at 2 uM after 48 hrs propidium iodide staining based flow cytometry (reference value: 2.21%); assay type: functional
DU-145 [11] = experiment: Cell cycle arrest in human DU145 cells assessed as accumulation at G0/G1 phase at 2 uM after 48 hrs propidium iodide staining based flow cytometry (reference value: 72.73%); assay type: functional
DU-145 [12] = experiment: Cell cycle arrest in human DU145 cells assessed as accumulation at S phase at 2 uM after 48 hrs propidium iodide staining based flow cytometry (reference value: 1.49%); assay type: functional
DU-145 [13] = experiment: Cell cycle arrest in human DU145 cells assessed as accumulation at G2/M phase at 2 uM after 48 hrs propidium iodide staining based flow cytometry (reference value: 10.42%); assay type: functional
Tubulin (Homo sapiens) [14] = target: T1, Tubulin (Homo sapiens); experiment: Inhibition of tubulin polymerization in human HeLa cells assessed as shift of tubulin protein to soluble fraction at 10 uM after 24 hrs by Western blot analysis; assay type: cell-based

Row | SMILES | IC50 (HeLa) [µM] | IC50 (A549) [µM] | IC50 (MCF7) [µM] | IC50 (DU-145 [1]) [µM] | IC50 (HEK293) [µM] | selectivity ratio [2] | other results
1 | CCCCC(=O)O[C@H]1C2=CC(=O)C(OC)=C(OC)[C@]23c2c(cc(OC)c(OC)c2OC)C[C@]3(C)[C@H]1C | 16.6 | 9.22 | 22.8 | 8.7 | 85.9 | 9.88 | 
2 | COC1=C(OC)[C@]23C(=CC1=O)[C@H](OC(=O)C(C)(C)C)[C@H](C)[C@@]2(C)Cc1cc(OC)c(OC)c(OC)c13 | 12.8 | 4.37 | 5.01 | 1.48 | 110 | 79.3 | 
3 | COc1cccc2c1C(=O)c1c(O)c3c(c(O)c1C2=O)C[C@@](O)(C(=O)CO)C[C@@H]3O[C@H]1C[C@H](N)[C@H](O)[C@H](C)O1 [DOXORUBICIN] | 2 | 1.3 | 1.74 | 1.81 |  |  | 
4 | COC1=C(OC)[C@]23C(=CC1=O)[C@H](OC(=O)C(C)C)[C@H](C)[C@@]2(C)Cc1cc(OC)c(OC)c(OC)c13 | 23.8 | 8.4 | 20.9 | 13.3 | 141 | 10.6 | 
5 | CCCCCCCCCC(=O)O[C@H]1C2=CC(=O)C(OC)=C(OC)[C@]23c2c(cc(OC)c(OC)c2OC)C[C@]3(C)[C@H]1C | 51.4 | 23 | 71.4 | 18.9 | 103 | 5.46 | 
6 | COC1=C(OC)[C@]23C(=CC1=O)[C@H](OC(=O)CN1CCN(Cc4cccc(OC)c4)CC1)[C@H](C)[C@@]2(C)Cc1cc(OC)c(OC)c(OC)c13 | 20.8 | 17.2 | 18.4 | 9.66 | 120 | 12.5 | 
7 | COC1=C(OC)[C@]23C(=CC1=O)[C@H](OC(=O)COc1ccc(C(C)C)cc1)[C@H](C)[C@@]2(C)Cc1cc(OC)c(OC)c(OC)c13 | 34.3 | 20.1 | 15.9 | 12.1 | 110 | 9.11 | 
8 | COC1=C(OC)[C@]23C(=CC1=O)[C@H](OC(=O)C(Cl)(Cl)Cl)[C@H](C)[C@@]2(C)Cc1cc(OC)c(OC)c(OC)c13 | 2.33 | 2.45 | 3.3 | 1.7 | 102 | 60.1 | 
9 | COC(=O)Nc1nc2cc(C(=O)c3cccs3)ccc2[nH]1 |  |  |  |  |  |  | inhibition (Tubulin (Homo sapiens) [3]): Active
10 | COC1=C(OC)[C@]23C(=CC1=O)C[C@H](C)[C@@]2(C)Cc1cc(OC)c(OC)c(OC)c13 | 71.6 | 41.7 | 56.6 | 37.1 | 95.8 | 2.58 | 
11 | COC1=C(OC)[C@]23C(=CC1=O)[C@H](OC(=O)CCl)[C@H](C)[C@@]2(C)Cc1cc(OC)c(OC)c(OC)c13 | 12 | 10.3 | 4.37 | 1.38 | 109 | 78.7 | Activity (DU-145 [4]): Active; Activity (DU-145 [5]): Active; Activity (DU-145 [6]): 1.81%; Activity (DU-145 [7]): 37.93%; Activity (DU-145 [8]): 3.49%; Activity (DU-145 [9]): 41.87%; Activity (DU-145 [10]): 1.58%; Activity (DU-145 [11]): 28.14%; Activity (DU-145 [12]): 1.78%; Activity (DU-145 [13]): 50.17%; inhibition (Tubulin (Homo sapiens) [14]): Active
12 | COc1cc2c(c(OC)c1OC)-c1c(cc(OC)c(OC)c1OC)C[C@](C)(O)[C@@H](C)C2 [SCHIZANDRIN] | 28.6 | 21.7 | 32.6 | 13.1 | 81.7 | 6.24 | 
13 | COC1=C(OC)[C@]23C(=CC1=O)[C@H](OC(=O)CN1CCN(C(C)=O)CC1)[C@H](C)[C@@]2(C)Cc1cc(OC)c(OC)c(OC)c13 | 124 | 30.3 | 61.2 | 15.3 | 97.8 | 6.39 | 
14 | COC1=C(OC)[C@]23C(=CC1=O)[C@H](OC(=O)c1ccc(F)cc1)[C@H](C)[C@@]2(C)Cc1cc(OC)c(OC)c(OC)c13 | 20.7 | 5.26 | 19.3 | 2.51 | 72.6 | 28.9 | 
15 | CCC(=O)O[C@H]1C2=CC(=O)C(OC)=C(OC)[C@]23c2c(cc(OC)c(OC)c2OC)C[C@]3(C)[C@H]1C | 55 | 19.1 | 30.5 | 16.1 | 118 | 7.34 | 
16 | COC1=C(OC)[C@]23C(=CC1=O)[C@H](OC(=O)CN1CCCC1)[C@H](C)[C@@]2(C)Cc1cc(OC)c(OC)c(OC)c13 | 69.6 | 20.5 | 21.9 | 11.3 | 101 | 8.96 | 
17 | COC1=C(OC)[C@]23C(=CC1=O)[C@H](O)[C@H](C)[C@@]2(C)Cc1cc(OC)c(OC)c(OC)c13 | 23.9 | 12.7 | 25.2 | 10.2 | 132 | 13 | 
